Measured values published in patent US20250099383A1, “COMPOSITIONS AND METHODS FOR DELIVERY OF NUCLEIC ACIDS” (Poseida Therapeutics, Inc., priority 2022, published 2025).

How the values were obtained:
[1] = Physical characteristics of LNPs (particle size, PDI); type: physicochemical; details: for PDI DNA / Particle Size (nm) DNA: LNP with Fluc DNA, compound/DOPE/Cholesterol/DMG-PEG2000 38/50/10.0/2.0, Lipid:DNA 45:1 (w/w); for PDI RNA / Particle Size (nm) RNA: LNP with Fluc mRNA, compound/DOPE/Cholesterol/DMG-PEG2000 41.44/45.85/10/2.7, Lipid:RNA 40:1 (w/w)
Experimental: LNP compositions of the present disclosure comprising exemplary compounds of Formula (I) were prepared by combining various percentages of an exemplary compound of Formula (I), the phospholipid DOPE, the structural lipid cholesterol (Chol) and 1,2-dimyristoyl-sn-glycerol methoxypolyethylene glycol (DMG-PEG2000; Avanti Polar Lipids, Alabaster, Alabama, USA).
Individual 25 mg/ml stock solutions were prepared by solubilizing the lipids in 200-proof HPLC-grade ethanol and stock solutions were stored at −80° C. until formulated. At the time of formulation, the lipid stock solutions were briefly allowed to equilibrate to room temp and then placed on a hot plate maintained at a temperature range of 50-55° C.
A 1 mg/ml solution of the desired mRNA or DNA to be incorporated into the LNPs was added to 150 mM sodium acetate buffer (pH 5.2) to form a stock solution and kept on ice. The aqueous mRNA or DNA was then added to the lipids as shown in Table 4 or 5 and hand-mixed vigorously with a single channel pipettor.
The resultant mRNA or DNA LNP compositions were then transferred to a Repligen Float-A-Lyzer dialysis device-having a molecular weight cut off (MWCO) of 8-10 kDa (Spectrum Chemical Mfg. Corp, CA, USA) and processed by dialysis against phosphate buffered saline (PBS) (dialysate: dialysis buffer volume at least 1:200 v/v), pH 7.4 overnight at 4° C. (or alternatively room temperature for at least 4 hours), to remove the 25% ethanol and achieve a complete buffer exchange. In some experiments the LNPs were further concentrated by in an Amicon® Ultra-4 centrifugal filter unit, MWCO-30 kDa (Millipore Sigma, USA) spun at ˜4100 x g in an ultracentrifuge. The mRNA and DNA LNPs were then stored at 4° C. until further use.
LNP compositions of the present disclosure comprising mRNA or DNA encoding firefly luciferase (hereafter “Fluc”; TriLink) and COMPOUNDS 5-49 were prepared as described in Example 61 by combining one of COMPOUNDS 5-49, the phospholipid DOPE, the structural lipid cholesterol (Chol) and 1,2-dimyristoyl-sn-glycerol methoxypolyethylene glycol (DMG-PEG2000) in the percentages presented in Tables 6 and 7:
The physical characteristics of the resulting LNPs were analyzed.
A 1 mg/ml solution of the 5′-CleanCap--fLuciferase mRNA (TriLink Biotech) to be incorporated into the LNPs was added to 150 mM sodium acetate buffer (pH 5.2) to form a stock solution and kept on ice. The lipid phase was mixed with the aqueous mRNA phase inside a microfluidic chip using a NanoAssemblr® instrument (Precision Nanosystems, Vancouver, BC, Canada) according to the manufacturer's instructions to form LNP compositions comprising encapsulated mRNAs.
The average particle size diameter of the LNPs was approximately 75-150 nm.

[2] = system: liver cells; assay: In vivo LNP delivery of firefly luciferase mRNA to liver, bioluminescent imaging (BLI); parameters: species or system BALB/C mice; details: 0.5 mg/kg fLuciferase mRNA i.v., BLI at 4 hr; for Mean Liver Luciferase Flux (p/s): LNP compositions of Table 25, adult female BALB/C, n=3; for Ave flux (p/s) n = 3: adult female BALB/C mice, LNP as in Example 66
Experimental: Adult female BALB/C mice (n=3/group) were intravenously administered 0.5 mg/kg of 5′-CleanCap-fLuciferase mRNA (TriLink Biotech) formulated with LNP compositions as described in Example 66. One group of mice was treated with vehicle (PBS, Thermo Fisher Scientific, USA) as a negative control.
(§1) The location and extent of luciferase expression in treated and control mice were determined at 4 hr by bioluminescent imaging (BLI) of anesthetized mice using an IVIS Lumina in vivo imaging system (Perkin Elmer) according to the manufacturer's instructions. Briefly, mice were anesthetized using isoflurane in oxygen, and placed supine on a heated stage. Mice were then administered D-luciferin (Perkin-Elmer #122799) IP, and BLI was performed.
Adult female BALB/C mice (n=3/group) were intravenously administered 0.5 mg/kg of 5′-CleanCap-fLuciferase mRNA (TriLink Biotech) formulated with the LNP compositions shown in Table 25. One group of mice was treated with vehicle (PBS, Thermo Fisher Scientific, USA) as a negative control. […]

[3] = Body weight change of mice after LNP administration; type: in vivo, BALB/C mice; details: for Ave weight change (gram) n = 3: 24 hrs after 0.5 mg/kg LNP encapsulating firefly luciferase mRNA, adult female BALB/C mice; for % Body Weight Change 24 hr: LNP compositions of Table 25, 0.5 mg/kg fLuciferase mRNA i.v., 24 hr post-administration vs baseline
Experimental: The mice above were also monitored for changes in body weight after LNP delivery. Mice were manually weighed on a scale before LNP dosage and then weighed 24 hrs after administration of 0.5 mg/kg of LNP article encapsulating Cleancap firefly luciferase mRNA. The average of weight change n=3 is reported below.
In addition, the body weight of mice treated with the LNP compositions of Table 25 was assessed prior to intravenous administration and twenty-four hours post-administration and the body weights at baseline and post-treatment were compared. The average percentage of body weight change for each group of mice treated with each LNP composition of Table 25 is shown in Table 28. […]

[4] = system: liver cells; assay: In vivo LNP delivery of nanoplasmid CMV-firefly luciferase DNA to liver of juvenile mice, BLI; details: juvenile female BALB/C mice age 14 days; 0.25 mg/kg nanoplasmid CMV-firefly luciferase retroorbital i.v.; BLI at 4 hr
Experimental: Juvenile female BALB/C mice of age 14 days (n=4/group) were retroorbitally intravenously administered 0.25 mg/kg of nanoplasmid CMV-firefly luciferase (Nature Technology Corp) formulated with LNP compositions as described in Example 66. One group of mice was treated with vehicle (PBS, Thermo Fisher Scientific, USA) as a negative control.
as §1

[5] = system: liver cells; assay: In vivo LNP delivery of firefly luciferase DNA to liver of adult mice, BLI; parameters: species or system BALB/C mice; details: BLI at 24 hr; for Mean Liver Luciferase Flux (p/s): AM-TTR firefly luciferase nanoplasmid DNA 0.5 mg/kg, adult BALB/C, n=3
Experimental: as §1
as §1, with “4 hr and 48” for “4”
as §1, with “24” for “4”
One group of mice was treated with an LNP composition of the present disclosure comprising Compound No. 30 as a positive control.
as §1, with “hr for RNA delivery, or 48 hr for DNA delivery,” for “hr”

SMILES	PDI DNA [1]	Particle Size (nm) DNA [1] [nm]	PDI RNA [1]	Particle Size (nm) RNA [1] [nm]	Mean Liver Luciferase Flux (p/s) [2] [p/s]	Ave flux (p/s) n = 3 [2] [p/s]	Ave weight change (gram) n = 3 [3] [gram]	% Body Weight Change 24 hr [3]	Ave flux (p/s) n = 4 [4] [p/s]	luciferase expression by BLI after DNA LNP, liver specific promoter (in words) ([5]; 0.5 mg/kg total DNA, nanoplasmid firefly luciferase under AM-TTR promoter, adult BALB/C mice)	Mean Liver Luciferase Flux (p/s) ([5]; LNP (Table 47) with Compound No. 30 prepared according to Alternative General Procedure K)	Mean Liver Luciferase Flux (p/s) ([5]; LNP (Table 47) with Compound No. 30 prepared according to Alternative General Procedure L)	Mean Liver Luciferase Flux (p/s) ([5]; LNP (Table 47) with Compound No. 30 prepared according to Example 21)
CC(C)=CCCC1=CCC(C(=O)OCCOC(=O)CCN(CCCN(C)C)CCC(=O)OCCOC(=O)C2CC=C(CCC=C(C)C)CC2)CC1 (centres unmarked) [Compound 19, ((3,3′-((3-(dimethylamino)propyl)azanediyl)bis(propanoyl))bis(oxy))bis(ethane-2,1-diyl)bis(4-(4-methylpent-3-en-1-yl)cyclohex-3-enecarboxylate)]	0.131	213.9	0.133	220.1	–	1.10E+06	0.70	–	–	–	–	–	–
CC(C)CCCC(C)CCCC1CCC(C(=O)OCCOC(=O)CCN(CCCN2CCN(CCCN(CCC(=O)OCCOC(=O)C3CCC(CCCC(C)CCCC(C)C)CC3)CCC(=O)OCCOC(=O)C3CCC(CCCC(C)CCCC(C)C)CC3)CC2)CCC(=O)OCCOC(=O)C2CCC(CCCC(C)CCCC(C)C)CC2)CC1 (centres unmarked) [Compound 16, ((3,3′,3″,3″-((piperazine-1,4-diylbis(propane-3,1-diyl))bis(azanetriyl))tetrakis(propanoyl))tetrakis(oxy))tetrakis(ethane-2,1-diyl)tetrakis(4-(4,8-dimethylnonyl)cyclohexanecarboxylate)]	0.108	326.3	0.142	354.0	–	3.67E+10	−3.60	–	8905000000	–	–	–	–
CC(C)CCCC(C)CCCC1CCC(C(=O)OCCOC(=O)CCN(CCCN(C)CCCN(CCC(=O)OCCOC(=O)C2CCC(CCCC(C)CCCC(C)C)CC2)CCC(=O)OCCOC(=O)C2CCC(CCCC(C)CCCC(C)C)CC2)CCC(=O)OCCOC(=O)C2CCC(CCCC(C)CCCC(C)C)CC2)CC1 (centres unmarked) [Compound 17]	0.129	287.7	0.145	293.3	–	2.96E+10	−3.10	–	–	–	–	–	–

Second part, led by results:

PDI DNA [1]	Particle Size (nm) DNA [1] [nm]	PDI RNA [1]	Particle Size (nm) RNA [1] [nm]	SMILES	Mean Liver Luciferase Flux (p/s) [2] [p/s]	Ave flux (p/s) n = 3 [2] [p/s]	Ave weight change (gram) n = 3 [3] [gram]	% Body Weight Change 24 hr [3]	Ave flux (p/s) n = 4 [4] [p/s]	luciferase expression by BLI after DNA LNP, liver specific promoter (in words) ([5]; 0.5 mg/kg total DNA, nanoplasmid firefly luciferase under AM-TTR promoter, adult BALB/C mice)	Mean Liver Luciferase Flux (p/s) ([5]; LNP (Table 47) with Compound No. 30 prepared according to Alternative General Procedure K)	Mean Liver Luciferase Flux (p/s) ([5]; LNP (Table 47) with Compound No. 30 prepared according to Alternative General Procedure L)	Mean Liver Luciferase Flux (p/s) ([5]; LNP (Table 47) with Compound No. 30 prepared according to Example 21)
0.081	317.2	0.197	422.3	CC(C)CCCC1CCC(C(=O)OCCOC(=O)CCN(CCCN2CCN(CCCN(CCC(=O)OCCOC(=O)C3CCC(CCCC(C)C)CC3)CCC(=O)OCCOC(=O)C3CCC(CCCC(C)C)CC3)CC2)CCC(=O)OCCOC(=O)C2CCC(CCCC(C)C)CC2)CC1 (centres unmarked) [Compound 29]	3.02e10	2.44E+10	−6.07	−2.4%	9120000000	–	–	–	–
0.189	332.8	0.184	434.4	CC(C)=CCCC1=CCC(C(=O)OCCOC(=O)CCN(CCCN(C)CCCN(CCC(=O)OCCOC(=O)C2CC=C(CCC=C(C)C)CC2)CCC(=O)OCCOC(=O)C2CC=C(CCC=C(C)C)CC2)CCC(=O)OCCOC(=O)C2CC=C(CCC=C(C)C)CC2)CC1 (centres unmarked) [Compound 23]	–	6.24E+09	−5.97	–	3012500000	–	–	–	–
0.167	276.9	0.170	326.7	CC(C)CCCC1CCC(C(=O)OCCOC(=O)CCN(CCCN(C)CCCN(CCC(=O)OCCOC(=O)C2CCC(CCCC(C)C)CC2)CCC(=O)OCCOC(=O)C2CCC(CCCC(C)C)CC2)CCC(=O)OCCOC(=O)C2CCC(CCCC(C)C)CC2)CC1 (centres unmarked) [Compound 30]	1.28e11	3.26E+10	−5.67	−2.8%	7332500000	successfully delivered DNA to liver cells	31400000	29600000	21266666.67
0.141	255.5	0.176	330.9	CC(C)=CCCC1=CCC(C(=O)OCCOC(=O)CCN(CCCN2CCN(CCCN(CCC(=O)OCCOC(=O)C3CC=C(CCC=C(C)C)CC3)CCC(=O)OCCOC(=O)C3CC=C(CCC=C(C)C)CC3)CC2)CCC(=O)OCCOC(=O)C2CC=C(CCC=C(C)C)CC2)CC1 (centres unmarked) [Compound 22]	1.84e10	9.27E+09	−6.40	+1.2%	–	–	–	–	–
